Assays:
Type in all cases: functional
[1] = test system: SW-620; experiment: Growth inhibition of human SW620 cells assessed as cell growth at 5X10'-8 M after 48 hrs by sulforhodamine B assay; details: SW-620, 48 h, read-out: Activity
[2] = test system: A549; experiment: Growth inhibition of human A549/ATCC cells assessed as cell growth at 5X10'-7 M after 48 hrs by sulforhodamine B assay; details: A549, 48 h, read-out: Activity
[3] = test system: UACC-257; experiment: Growth inhibition of human UACC257 cells assessed as cell growth at 5X10'-9 M after 48 hrs by sulforhodamine B assay; details: UACC-257, 48 h, read-out: Activity
[4] = test system: NCI-H522; experiment: Growth inhibition of human NCI-H522 cells assessed as cell growth at 5X10'-6 M after 48 hrs by sulforhodamine B assay; details: NCI-H522, 48 h, read-out: Activity
[5] = test system: DU-145; experiment: Growth inhibition of human DU145 cells assessed as cell growth at 5X10'-5 M after 48 hrs by sulforhodamine B assay; details: DU-145, 48 h, read-out: Activity
[6] = test system: SW-620; experiment: Growth inhibition of human SW620 cells assessed as cell growth at 5X10'-9 M after 48 hrs by sulforhodamine B assay; details: SW-620, 48 h, read-out: Activity
[7] = test system: NCI-H522; experiment: Growth inhibition of human NCI-H522 cells assessed as cell growth at 5X10'-5 M after 48 hrs by sulforhodamine B assay; details: NCI-H522, 48 h, read-out: Activity
[8] = test system: 786-0; experiment: Growth inhibition of human 786-0 cells assessed as cell growth at 5X10'-8 M after 48 hrs by sulforhodamine B assay; details: 786-0, 48 h, read-out: Activity
[9] = test system: Malme-3M; experiment: Growth inhibition of human MALME-3M cells assessed as cell growth at 5X10'-7 M after 48 hrs by sulforhodamine B assay; details: read-out: Activity
[10] = test system: MDA-MB-435; experiment: Growth inhibition of human MDA-MB-435 cells assessed as cell growth at 5X10'-7 M after 48 hrs by sulforhodamine B assay; details: MDA-MB-435, 48 h, read-out: Activity
[11] = test system: SN12C; experiment: Growth inhibition of human SN12C cells assessed as cell growth at 5X10'-8 M after 48 hrs by sulforhodamine B assay; details: read-out: Activity
[12] = test system: SK-MEL-2; experiment: Growth inhibition of human SK-MEL-2 cells assessed as cell growth at 5X10'-9 M after 48 hrs by sulforhodamine B assay; details: SK-MEL-2, 48 h, read-out: Activity
[13] = test system: HOP-92; experiment: Growth inhibition of human HOP92 cells assessed as cell growth at 5X10'-5 M after 48 hrs by sulforhodamine B assay; details: HOP-92, 48 h, read-out: Activity
[14] = test system: NCI-H460; experiment: Growth inhibition of human NCI-H460 cells assessed as cell growth at 5X10'-9 M after 48 hrs by sulforhodamine B assay; details: NCI-H460, 48 h, read-out: Activity
[15] = test system: KM12; experiment: Growth inhibition of human KM12 cells assessed as cell growth at 5X10'-5 M after 48 hrs by sulforhodamine B assay; details: KM12, 48 h, read-out: Activity
[16] = test system: SR; experiment: Growth inhibition of human SR cells assessed as cell growth at 5X10'-7 M after 48 hrs by sulforhodamine B assay; details: read-out: Activity
[17] = test system: UACC-62; experiment: Growth inhibition of human UACC62 cells assessed as cell growth at 5X10'-6 M after 48 hrs by sulforhodamine B assay; details: UACC-62, 48 h, read-out: Activity
[18] = test system: SF-539; experiment: Growth inhibition of human SF539 cells assessed as cell growth at 5X10'-8 M after 48 hrs by sulforhodamine B assay; details: SF-539, 48 h, read-out: Activity
[19] = test system: HOP-62; experiment: Growth inhibition of human HOP62 cells assessed as cell growth at 5X10'-8 M after 48 hrs by sulforhodamine B assay; details: HOP-62, 48 h, read-out: Activity
[20] = test system: KM12; experiment: Growth inhibition of human KM12 cells assessed as cell growth at 5X10'-7 M after 48 hrs by sulforhodamine B assay; details: KM12, 48 h, read-out: Activity
[21] = test system: IGROV-1; experiment: Growth inhibition of human IGROV1 cells assessed as cell growth at 5X10'-8 M after 48 hrs by sulforhodamine B assay; details: IGROV-1, 48 h, read-out: Activity
[22] = test system: COLO 205; experiment: Growth inhibition of human COLO205 cells assessed as cell growth at 5X10'-8 M after 48 hrs by sulforhodamine B assay; details: COLO 205, 48 h, read-out: Activity
[23] = test system: PC-3; experiment: Growth inhibition of human PC3 cells assessed as cell growth at 5X10'-9 M after 48 hrs by sulforhodamine B assay; details: PC-3, 48 h, read-out: Activity
[24] = test system: T47D; experiment: Growth inhibition of human T47D cells assessed as cell growth at 5X10'-6 M after 48 hrs by sulforhodamine B assay; details: read-out: Activity
[25] = test system: T47D; experiment: Growth inhibition of human T47D cells assessed as cell growth at 5X10'-9 M after 48 hrs by sulforhodamine B assay; details: read-out: Activity
[26] = test system: SF-295; experiment: Growth inhibition of human SF295 cells assessed as cell growth at 5X10'-9 M after 48 hrs by sulforhodamine B assay; details: SF-295, 48 h, read-out: Activity
[27] = test system: CAKI-1; experiment: Growth inhibition of human CAKI-1 cells assessed as cell growth at 5X10'-9 M after 48 hrs by sulforhodamine B assay; details: CAKI-1, 48 h, read-out: Activity
[28] = test system: HCT-116; experiment: Growth inhibition of human HCT116 cells assessed as cell growth at 5X10'-6 M after 48 hrs by sulforhodamine B assay; details: HCT-116, 48 h, read-out: Activity
[29] = test system: HL-60(TB); experiment: Growth inhibition of human HL-60(TB) cells assessed as cell growth at 5X10'-5 M after 48 hrs by sulforhodamine B assay; details: HL-60, 48 h, read-out: Activity
[30] = test system: SK-MEL-2; experiment: Growth inhibition of human SK-MEL-2 cells assessed as cell growth at 5X10'-7 M after 48 hrs by sulforhodamine B assay; details: SK-MEL-2, 48 h, read-out: Activity
[31] = test system: MCF7; experiment: Growth inhibition of human MCF7 cells assessed as cell growth at 5X10'-6 M after 48 hrs by sulforhodamine B assay; details: MCF7, 48 h, read-out: Activity
[32] = test system: MDA-MB-435; experiment: Growth inhibition of human MDA-MB-435 cells assessed as cell growth at 5X10'-9 M after 48 hrs by sulforhodamine B assay; details: MDA-MB-435, 48 h, read-out: Activity
[33] = test system: SR; experiment: Growth inhibition of human SR cells assessed as cell growth at 5X10'-8 M after 48 hrs by sulforhodamine B assay; details: read-out: Activity
[34] = test system: OVCAR-8; experiment: Growth inhibition of human OVCAR8 cells assessed as cell growth at 5X10'-7 M after 48 hrs by sulforhodamine B assay; details: OVCAR-8, 48 h, read-out: Activity
[35] = test system: HL-60(TB); experiment: Growth inhibition of human HL-60(TB) cells assessed as cell growth at 5X10'-8 M after 48 hrs by sulforhodamine B assay; details: HL-60, 48 h, read-out: Activity
[36] = test system: MOLT-4; experiment: Growth inhibition of human MOLT4 cells assessed as cell growth at 5X10'-7 M after 48 hrs by sulforhodamine B assay; details: MOLT-4, 48 h, read-out: Activity
[37] = Growth inhibition of human NCI-ADR-RES cells assessed as cell growth at 5X10'-8 M after 48 hrs by sulforhodamine B assay; details: read-out: Activity

Row | SMILES | growth at 0.05 µM [1] | growth at 0.5 µM [2] | growth at 0.005 µM [3] | growth at 5 µM [4] | growth at 50 µM [5] | growth at 0.005 µM [6] | growth at 50 µM [7] | growth at 0.05 µM [8] | growth at 0.5 µM [9] | growth at 0.5 µM [10] | growth at 0.05 µM [11] | growth at 0.005 µM [12] | growth at 50 µM [13] | growth at 0.005 µM [14] | growth at 50 µM [15] | growth at 0.5 µM [16] | growth at 5 µM [17] | growth at 0.05 µM [18] | growth at 0.05 µM [19] | growth at 0.5 µM [20] | other results
1 | COc1cc(-c2nn(-c3cccc(NC(=O)Nc4cc(C(F)(F)F)cc(C(F)(F)F)c4)c3)cc2-c2ccncc2)ccc1Cl | 95% | 52% | 94% | -48% | -80% | 98% | -65% | 102% | 83% | 85% | 91% | 111% | -72% | 99% | -68% | 80% | -66% | 90% | 95% | 53% | growth at 0.05 µM [21]: 105%; growth at 0.05 µM [22]: 102%; growth at 0.005 µM [23]: 92%; growth at 5 µM [24]: 10%; growth at 0.005 µM [25]: 101%; growth at 0.005 µM [26]: 90%; growth at 0.005 µM [27]: 95%; growth at 5 µM [28]: -52%; growth at 50 µM [29]: 6%; growth at 0.5 µM [30]: 105%; growth at 5 µM [31]: 2%; growth at 0.005 µM [32]: 98%; growth at 0.05 µM [33]: 103%; growth at 0.5 µM [34]: 51%; growth at 0.05 µM [35]: 98%; growth at 0.5 µM [36]: 77%; growth at 0.05 µM [37]: 106%
2 | O=C(Nc1cccc(-n2cc(-c3ccncc3)c(-c3ccc(Cl)c(O)c3)n2)c1)c1ccc(N2CCOCC2)c(C(F)(F)F)c1 | 104% | 92% | 100% | 29% | 26% | 102% | -2% | 95% | 89% | 85% | 98% | 96% | -15% | 103% | 1% | 84% | 39% | 93% | 101% | 85% | growth at 0.05 µM [21]: 95%; growth at 0.05 µM [22]: 102%; growth at 0.005 µM [23]: 100%; growth at 5 µM [24]: 84%; growth at 0.005 µM [25]: 97%; growth at 0.005 µM [26]: 93%; growth at 0.005 µM [27]: 93%; growth at 5 µM [28]: 35%; growth at 50 µM [29]: 4%; growth at 0.5 µM [30]: 102%; growth at 5 µM [31]: 41%; growth at 0.005 µM [32]: 93%; growth at 0.05 µM [33]: 99%; growth at 0.5 µM [34]: 86%; growth at 0.05 µM [35]: 117%; growth at 0.5 µM [36]: 87%; growth at 0.05 µM [37]: 98%
3 | COc1cc(-c2nn(-c3cccc(NC(=O)Nc4cccc(C(F)(F)F)c4)c3)cc2-c2ccncc2)ccc1Cl | 94% | 62% | 96% | -30% | 1% | 98% | -41% | 95% | 94% | 80% | 97% | 101% | -45% | 100% | -47% | 75% | -73% | 94% | 95% | 55% | growth at 0.05 µM [21]: 96%; growth at 0.05 µM [22]: 98%; growth at 0.005 µM [23]: 92%; growth at 5 µM [24]: 18%; growth at 0.005 µM [25]: 95%; growth at 0.005 µM [26]: 96%; growth at 0.005 µM [27]: 94%; growth at 5 µM [28]: 3%; growth at 50 µM [29]: 5%; growth at 0.5 µM [30]: 97%; growth at 5 µM [31]: 2%; growth at 0.005 µM [32]: 95%; growth at 0.05 µM [33]: 93%; growth at 0.5 µM [34]: 65%; growth at 0.05 µM [35]: 94%; growth at 0.5 µM [36]: 74%; growth at 0.05 µM [37]: 97%

Source: ChEMBL document CHEMBL2440076, “New triarylpyrazoles as broad-spectrum anticancer agents: design, synthesis, and biological evaluation” (Eur J Med Chem, 2013)
